Values of other authors in article PMC8942822 (The Journal of Biological Chemistry, 2022).

Assays:
[1] = target: T1, SpaASLH (SLH domain trimer of S-layer protein SpaA, wild-type) (Paenibacillus alvei, UniProt C1JZ07)
T1 sequence (C1JZ07 21-193): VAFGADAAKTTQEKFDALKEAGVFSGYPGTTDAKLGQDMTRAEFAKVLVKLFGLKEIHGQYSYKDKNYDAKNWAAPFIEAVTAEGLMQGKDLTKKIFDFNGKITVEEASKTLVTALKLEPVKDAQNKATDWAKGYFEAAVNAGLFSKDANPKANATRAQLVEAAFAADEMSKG

[2] = target: T2, SpaASLH/G109A (Paenibacillus alvei, UniProt C1JZ07, G109A)
T2 sequence (C1JZ07 21-193 G109A): T1 sequence (C1JZ07 21-193)

[3] = tested on: SpaASLH/G46A/G109A; settings: 20 °C, SpaASLH/G46A/G109A double mutant, previously published
[4] = ITC, 20 °C, SpaASLH wild-type, previously published
[5] = ITC, 20 °C, SpaASLH/G109A, previously published

Binding by ITC ([1]; ITC experiments with internal-repeat SCWP disaccharide)	KA [1, 4]	Kd [1, 4]	Stoichiometry [1, 4]	ΔG [1, 4]	ΔH [1, 4]	−TΔS [1, 4]	Decrease of ITC binding affinity, G109A mutant (G1 binding) vs wild-type [2]	KA [2, 5]	Kd [2, 5]	Stoichiometry [2, 5]	ΔG [2, 5]	ΔH [2, 5]	−TΔS [2, 5]	Binding by ITC [3]	Structure (SMILES)
lack of corresponding measurable binding	–	–	–	–	–	–	–	–	–	–	–	–	–	–	CO[C@@H]1O[C@@H]2CO[C@](C)(C(=O)O)O[C@H]2[C@H](O[C@@H]2O[C@H](CO)[C@@H](O)[C@H](O)[C@H]2NC(C)=O)[C@@H]1NC(C)=O [internal disaccharide, β-D-GlcNAc-(1→3)-4,6-Pyr-β-D-ManNAcOMe]
–	3.48 × 10^7 ± 0.36 M^−1	29 nM	0.91 ± 0.04	-10.06 ± 0.155 kcal/mol	-21 ± 3.733 kcal/mol	10.93 ± 3.826 kcal/mol	tenfold	4.48 × 10^6 ± 0.62 M^−1	226 nM	0.92 ± 0.04	-8.917 ± 0.0789 kcal/mol	-12.1 ± 1.74 kcal/mol	3.186 ± 1.67 kcal/mol	No binding	CO[C@@H]1O[C@@H]2CO[C@](C)(C(=O)O)O[C@H]2[C@H](O)[C@@H]1NC(C)=O [monosaccharide, 4,6-Pyr-β-D-ManNAcOMe]
